We go through 26 molecules from BindingDB's records for doi:10.1021/acs.jmedchem.8b01719 (Glaxosmithkline, 2019).

The nature of assay [1]: Inhibition of HCV genotype 1a wild-type NS5B RNA dependent RNA polymerase transfected in human HuH7 Lunet replicon cells assessed as reduction in viral replication after 3 days by steady-glo luciferase reporter gene assay.
Assay [2] can be described thus: Inhibition of HCV genotype 1a NS5B RNA dependent RNA polymerase C316Y mutant transfected in human HuH7 Lunet replicon cells assessed as reduction in viral replication after 3 days by steady-glo luciferase reporter gene assay.
Assay [3] is described as follows: Inhibition of HCV genotype 1b NS5B RNA dependent RNA polymerase C316N mutant infected in human HuH7 Lunet replicon cells assessed as reduction in viral replication after 48 hrs by steady-glo luciferase reporter gene assay.
A short description of assay [4]: Inhibition of HCV genotype 1b wild-type NS5B RNA dependent RNA polymerase infected in human HuH7 Lunet replicon cells assessed as reduction in viral replication after 48 hrs by steady-glo luciferase reporter gene assay.

For the molecule `CNC(=O)c1c(-c2ccc(F)cc2)oc2cc(N(c3cc(Cl)c4c(c3)COB4O)S(C)(=O)=O)c(C3CC3)cc12`, the EC50 amounted to 1.3 nM in assay [1], 32 nM in assay [2], 2.5 nM in assay [3] and 2.5 nM in assay [4].

In the case of `CNC(=O)c1c(-c2ccc(F)cc2)oc2cc(N3C(=O)OC[C@@H]3c3ccc(B(O)O)c(F)c3)c(C3CC3)cc12`, the EC50 was determined as 2.6 nM in assay [1], 24 nM in assay [2], 5 nM in assay [3] and 2 nM in assay [4].

Turning to `CNC(=O)c1c(-c2ccc(F)cc2)oc2cc(N(c3ccc(B(O)O)cc3)S(C)(=O)=O)c(C3CC3)cc12`, the EC50 in assay [1] came out at 0.9 nM; in assay [2] it was 290 nM; in assay [3], 6.3 nM; in assay [4] it was 2.5 nM.

On to `CNC(=O)c1c(-c2ccc(F)cc2)oc2cc(N(c3ccc(B(O)O)c(C(F)(F)F)c3)S(C)(=O)=O)c(C3CC3)cc12`, for which the EC50 came to 1.1 nM in assay [1], 17 nM in assay [2], 7.9 nM in assay [3] and 4 nM in assay [4].

With `CNC(=O)c1c(-c2ccc(F)cc2)oc2cc(N3C(=O)OCC3c3ccc(B(O)O)cc3)c(C3CC3)cc12` (centres undefined), the EC50 in assay [1] amounted to 8.3 nM; in assay [2], 2000 nM; in assay [3], 200 nM; in assay [4] it was 16 nM.

As to `CNC(=O)c1c(-c2ccc(F)cc2)oc2cc(-c3ncnn3-c3ccc(B(O)O)c(F)c3)c(C3CC3)cc12`, the EC50 in assay [1] stood at 1.2 nM; in assay [2], 24 nM; in assay [3], 4 nM; in assay [4], 2 nM.

On to `CNC(=O)c1c(-c2ccc(F)cc2)oc2cc(-n3nccc3-c3ccc(B(O)O)c(F)c3)c(C3CC3)cc12`, for which the EC50 turned out to be 2.3 nM in assay [1], 20 nM in assay [2], 7.9 nM in assay [3] and 4 nM in assay [4].

Regarding `CNC(=O)c1c(-c2ccc(F)cc2)oc2cc(-c3ncoc3-c3ccc(B(O)O)c(F)c3)c(C3CC3)cc12`, the concentration giving a half-maximal response (EC50) in assay [1] amounted to 3.4 nM; in assay [2] it was 30 nM; in assay [3], 6.3 nM; in assay [4], 4 nM.

As for `CNC(=O)c1c(-c2ccc(F)cc2)oc2cc(N3C(=O)OCCC3c3ccc(B(O)O)cc3)c(C3CC3)cc12` (centres undefined), the EC50 in assay [1] stood at 56 nM; in assay [2], 310 nM; in assay [3] it was 400 nM; in assay [4], 50 nM.

Consider `CNC(=O)c1c(-c2ccc(F)cc2)oc2cc(N3C(=O)OC[C@@H]3c3cccc(F)c3)c(C3CC3)cc12`, for which the EC50 in assay [1] was 290 nM; in assay [2], above 5000 nM; in assay [3], above 5000 nM; in assay [4], 1600 nM.

Regarding `CNC(=O)c1c(-c2ccc(F)cc2)oc2cc(-n3ncnc3-c3ccc(B(O)O)c(F)c3)c(C3CC3)cc12`, the EC50 in assay [1] came out at 1.1 nM; in assay [2] it was 46 nM; in assay [3] it was 6.3 nM; in assay [4], 2 nM.

As for `CNC(=O)c1c(-c2ccc(F)cc2)oc2cc(-n3nnnc3-c3ccc(B(O)O)c(Cl)c3)c(C3CC3)cc12`, the EC50 is 3.8 nM in assay [1], 660 nM in assay [2], 40 nM in assay [3] and 5 nM in assay [4].

On to `CNC(=O)c1c(-c2ccc(F)cc2)oc2cc(N(c3cccc(B(O)O)c3)S(C)(=O)=O)c(C3CC3)cc12`, for which the EC50 worked out at 2.2 nM in assay [1], 1900 nM in assay [2], 63 nM in assay [3] and 6.3 nM in assay [4].

For the molecule `CNC(=O)c1c(-c2ccc(F)cc2)oc2cc(N(c3ccc(B(O)O)c(F)c3)S(C)(=O)=O)c(C3CC3)cc12`, the half-maximal effective concentration (EC50) amounted to 1 nM in assay [1], 39 nM in assay [2], 3.2 nM in assay [3] and 2 nM in assay [4].

As for `CNC(=O)c1c(-c2ccc(F)cc2)oc2cc(N(Cc3ccc(B(O)O)cc3C(F)(F)F)S(C)(=O)=O)c(C3CC3)cc12`, the results for the EC50 in assay [3] and in assay [4] were 19 nM and 5 nM, respectively.

On to `CNC(=O)c1c(-c2ccc(F)cc2)oc2cc(N(C3CCCc4cc(B(O)O)ccc43)S(C)(=O)=O)c(C3CC3)cc12` (centres undefined), for which the EC50 in assay [1] was 28 nM; in assay [2] it was above 5000 nM; in assay [3], 250 nM; in assay [4] it was 100 nM.

`CNC(=O)c1c(-c2ccc(F)cc2)oc2cc(N(C3CCc4c(B(O)O)cccc43)S(C)(=O)=O)c(C3CC3)cc12` (centres undefined): the EC50 is 11 nM in assay [1], 1200 nM in assay [2], 320 nM in assay [3] and 40 nM in assay [4].

As for `CNC(=O)c1c(-c2ccc(F)cc2)oc2cc(N3C(=O)CCC3c3ccc(B(O)O)cc3)c(C3CC3)cc12` (centres undefined), the results for the half-maximal effective concentration (EC50) in assay [3] and in assay [4] were 790 nM and 63 nM, respectively.

`CNC(=O)c1c(-c2ccc(F)cc2)oc2cc(N3C(=O)OCC3c3cccc(B(O)O)c3)c(C3CC3)cc12` (centres undefined): the figures for the EC50 in assay [3] and in assay [4] were 1600 nM and 100 nM, respectively.

Turning to `CNC(=O)c1c(-c2ccc(F)cc2)oc2cc(N3C(=O)OC[C@H]3c3ccc(B(O)O)c(F)c3)c(C3CC3)cc12`, the EC50 in assay [1] was 140 nM; in assay [2], above 5000 nM; in assay [3], 1600 nM; in assay [4] it was 200 nM.

`CNC(=O)c1c(-c2ccc(F)cc2)oc2cc(-n3ccnc3-c3ccc(B(O)O)c(F)c3)c(C3CC3)cc12`: the concentration giving a half-maximal response (EC50) turned out to be 18 nM in assay [1], 2000 nM in assay [2], 400 nM in assay [3] and 50 nM in assay [4].

For the molecule `CNC(=O)c1c(-c2ccc(F)cc2)oc2cc(-n3nc(C)nc3-c3ccc(B(O)O)c(F)c3)c(C3CC3)cc12`, the EC50 in assay [1] came to 6 nM; in assay [2] it was 630 nM; in assay [3], 400 nM; in assay [4] it was 13 nM.

Turning to `CNC(=O)c1c(-c2ccc(F)cc2)oc2cc(N3C(=O)NCC3c3ccc(B(O)O)cc3)c(C3CC3)cc12` (centres undefined), the EC50 in assay [3] stood at 3200 nM; in assay [4] it was 250 nM.

For the molecule `CNC(=O)c1c(-c2ccc(F)cc2)oc2cc(N(c3ccc(B(O)O)c(Cl)c3)S(C)(=O)=O)c(C3CC3)cc12`, the EC50 is 1.2 nM in assay [1], 11 nM in assay [2], 4 nM in assay [3] and 2.5 nM in assay [4].

On to `CNC(=O)c1c(-c2ccc(F)cc2)oc2cc(N(C3CCc4cc(B(O)O)ccc43)S(C)(=O)=O)c(C3CC3)cc12` (centres undefined), for which the EC50 was found to be 9.2 nM in assay [1], 4400 nM in assay [2], 500 nM in assay [3] and 50 nM in assay [4].

As to `CNC(=O)c1c(-c2ccc(F)cc2)oc2cc(N(C(C)c3ccc4c(c3)COB4O)S(C)(=O)=O)c(C3CC3)cc12` (centres undefined), the EC50 in assay [3] stood at 830 nM; in assay [4] it was 25 nM.
